In patent US20200276181A1, “THIENOISOQUINOLINES AND THEIR DERIVATIVES FOR TARGETING TUBULIN, CH-TOG, AURORA A KINASE, TPX2, CDK5RAP2 AND/OR ASPM” (VALORBEC, SEC, priority 2017, published 2020):

Legend:
HeLa cells = assay: Spindle phenotypes, fixed cells stained for γ-tubulin and ACA; format: cell-based, human; conditions: 300 nM for 4 hours
From the text: (§1) For each condition, 20,000 cells were counted per replicate (N=3). Line graphs (right) were made to better illustrate the relative changes in the cell cycle phases for the different treatments. Bars show standard deviation. The asterisks indicate the first statistically significant change in the G0/G1 and G2/M populations determined by a two-way ANOVA with a post-hoc Tukey's multiple comparisons test using 95% confidence intervals. FIG. 2B) is a line graph showing the percentage of HCT116 (p53−/−) cells, A549 cells, HeLa cells and H1299 cells in mitosis after treatment with various concentrations of C75 for one population doubling time. All of the cell lines show an increase in the proportion of mitotic cells after treatment with 200 nM C75. The bars indicate standard deviation. […] While the mitotic spindles were not dramatically altered by C75 in HFF1 cells, they were monopolar (as shown) or fragmented in the other cell types. […] The mitotic spindles were more strongly fragmented after C75 treatment in these cells vs. the cells in FIG. 2C). FIG. 2E) are images showing fixed HFF1, HeLa, A549 and HCT 116 cells co-stained for γ-tubulin (spindle poles; white) and ACA (centromeres; light grey) 4 hours after treatment with 300 nM C87 (control) or 300 nM C75. Cartoon schematics show examples of the different spindle phenotypes, including bipolar with aligned chromosomes (top), bipolar with misaligned chromosomes (upper middle), multipolar/fragmented (lower middle), or monopolar (bottom), and the proportion of that phenotype is shown in the top right corner of each image. FIG. 2F) is a bar graph showing the proportion of the different spindle phenotypes for HFF1, HeLa, A549 and HCT 116 cells treated as in FIG. 2E) (n=1355; N=3). Bars show standard deviation. […] While mitotic spindles recovered bipolarity after removing nocodazole, they remained multipolar after removing C75. […] FIG. 2J) is a bar graph showing the proportion of cells with monopolar (black), bipolar (dark grey) or multipolar (light grey) spindles. Bars show standard deviation. FIG. 2K) is a series of time-lapse images of a live HeLa cell expressing GFP:tubulin after treatment with C75 as shown in 2G). […] Drugs were not washed out. […]
(§2) C75 was also tested for efficacy in different cancer cell lines. […] To further assess the role of C75 in disrupting spindles, HeLa cells were treated with 300 nM C75 for 4 hours and the spindle phenotypes were analyzed in more detail (FIG. 2E). […] To assess the affect of C75 on centrosomes, HeLa cells were treated with C75 or nocodazole (a drug that causes microtubule depolymerization as a control) for a short period of time (5 minutes), then the drugs were removed and the cells were analyzed for spindle phenotypes (schematic in FIG. 2G). […]

A549 cells = assay: as above; format: cell-based, human; conditions: 300 nM for 4 hours
From the text: as §1, §2

HCT116 cells = assay: as above; format: cell-based; conditions: 300 nM for 4 hours
From the text: as §1, §2

HFF-1 cells = assay: as above; format: cell-based; conditions: 300 nM for 4 hours
From the text: as §1, §2

[1] = test system: MCF7, BT549, A549, HCT116, HeLa cells; assay: Viability in cancer vs non-cancer cell lines, summary of Table 3; format: cell-based, human
Procedure: To date, 30 variants with different structural modifications have been made. […] In particular, it is shown that C75 causes death in multiple cancer cells with IC50 values in the 100-400 nM range, including breast cancers (MCF7, BT549), lung cancer (A549), colorectal cancer (HCT116) in addition to HeLa cells (cervical cancer).

With `COc1ccc(S(=O)(=O)N2Cc3ccccc3-c3sc(Br)cc32)cc1` [Compound C75] as the compound, how does the “cells with bipolar spindles with misaligned chromosomes” value (“cells … with misaligned chromosomes” below) (HeLa cells) read?
The value was 41%.

And the “cells with multipolar or fragmented spindles” value (HeLa cells)?
Its value is 31%.

And the “cells … with misaligned chromosomes” value (A549 cells)?
The value was 17%.

What about the “cells with multipolar or fragmented spindles” value (A549 cells) of the same compound?
Its value is 78%.

And the “cells … with misaligned chromosomes” value (HCT116 cells)?
The value was 22%.

What about the “cells with monopolar spindles” value (HCT116 cells) of the same compound?
Its value is 35%.

And the “cells with multipolar or fragmented spindles” value (HCT116 cells)?
The value was 13%.

What about the “cells with bipolar spindles with aligned chromosomes” value (HFF-1 cells) of the same compound?
Its value is 88%.

And the “efficacy (effect on viability) in cancer cells vs. non-cancer cells” value [1]?
The value was “higher efficacy”.

And the IC50 ([1]; Homo sapiens, MCF7, BT549, A549, HCT116, HeLa, read-out: IC50 values in multiple cancer cells)?
The IC50 was 100 to 400 nM.
